# According to patent US9255295B2, “Method for evaluating the sensitizing potential of a test compound” (IMMUNOSEARCH, priority 2010, dated 2016):
# System: genes specific for sensitization (BRAK, CTSS, DAPK2, FABP4, HSP27, IL18, HSP90, IL1R2, TPSAB1, CXCR1, DEFB1, DHFR, EHF, IVL, KRT4, MELANA, NGAL, PDZK1IP1, PI3 …)
# Assay: Expression of the other (non-ARE) sensitization-specific genes in EPISKIN reconstructed skin (quantitative RT-PCR);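 as to CTSS NUMBER OF GENES grade: grade scored against expression in the control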;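 as to CXCR1 NUMBER OF GENES grade: grade scored against expression in the control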;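 as to DAPK2 NUMBER OF GENES grade: grade scored against expression in the control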
# Format: cell-based, human
structure (smiles),measurement,setting,value
O=CC=O [Glyoxal],BRAK NUMBER OF GENES grade,0.1%,"0 (if this expression is lower, the grade is 0)"
same,CTSS NUMBER OF GENES grade,0.1%,"0 (if this expression is lower, the grade is 0)"
same,CXCR1 NUMBER OF GENES grade,0.1%,"0 (if this expression is lower, the grade is 0)"
same,DAPK2 NUMBER OF GENES grade,0.1%,"0 (if this expression is lower, the grade is 0)"
same,DEFB1 NUMBER OF GENES grade,0.1%,"0 (if this expression is lower, the grade is 0)"
same,DHFR NUMBER OF GENES grade,0.1%,"0 (if this expression is lower, the grade is 0)"
same,EHF NUMBER OF GENES grade,0.1%,"0 (if this expression is lower, the grade is 0)"
same,FABP4 NUMBER OF GENES grade,0.1%,"0 (if this expression is lower, the grade is 0)"
same,HSP27 NUMBER OF GENES grade,0.1%,"0 (if this expression is lower, the grade is 0)"
same,HSP90 NUMBER OF GENES grade,0.1%,"0 (if this expression is lower, the grade is 0)"
same,IL18 NUMBER OF GENES grade,0.1%,"0 (if this expression is lower, the grade is 0)"
same,IVL NUMBER OF GENES grade,0.1%,"0 (if this expression is lower, the grade is 0)"
same,KRT4 NUMBER OF GENES grade,0.1%,"0 (if this expression is lower, the grade is 0)"
same,MELANA NUMBER OF GENES grade,0.1%,"0 (if this expression is lower, the grade is 0)"
same,NGAL NUMBER OF GENES grade,0.1%,"0 (if this expression is lower, the grade is 0)"
same,P13 NUMBER OF GENES grade,0.1%,"0 (if this expression is lower, the grade is 0)"
same,PDZK1iP1 NUMBER OF GENES grade,0.1%,"0 (if this expression is lower, the grade is 0)"
same,SENS >1.3 (number of genes),0.1%,0
same,SERPINB3 NUMBER OF GENES grade,0.1%,"0 (if this expression is lower, the grade is 0)"
same,TOTAL SENS (number of genes),0.1%,0
same,BRAK expression,"0.1%, compared to the control",0.6
same,CTSS expression,"0.1%, compared to the control",1.0
same,CXCR1 expression,"0.1%, compared to the control",1.1
same,DAPK2 expression,"0.1%, compared to the control",0.9
same,DEFB1 expression,"0.1%, compared to the control",0.8
same,DHFR expression,"0.1%, compared to the control",0.9
same,EHF expression,"0.1%, compared to the control",0.8
same,FABP4 expression,"0.1%, compared to the control",0.4
same,HSP27 expression,"0.1%, compared to the control",0.7
same,HSP90 expression,"0.1%, compared to the control",1.0
same,IL18 expression,"0.1%, compared to the control",0.8
same,IVL expression,"0.1%, compared to the control",0.7
same,KRT4 expression,"0.1%, compared to the control",0.9
same,MELANA expression,"0.1%, compared to the control",0.5
same,NGAL expression,"0.1%, compared to the control",0.7
same,P13 expression,"0.1%, compared to the control",0.8
same,PDZK1iP1 expression,"0.1%, compared to the control",0.9
same,SERPINB3 expression,"0.1%, compared to the control",1.0
same,BRAK NUMBER OF GENES grade,1%,"0 (if this expression is lower, the grade is 0)"
same,CTSS expression compared to control,1%,1.3
same,CTSS grade (NUMBER OF GENES),1%,"1 (If the expression is greater than 1.3 compared to the control, a grade of 11s given)"
same,CXCR1 expression compared to control,1%,1.6
same,CXCR1 grade (NUMBER OF GENES),1%,"1 (If the expression is greater than 1.3 compared to the control, a grade of 11s given)"
same,DAPK2 expression compared to control,1%,0.9
same,DAPK2 grade (NUMBER OF GENES),1%,"0 (if this expression is lower, the grade is 0)"
same,DEFB1 expression compared to control,1%,1.4
same,DEFB1 grade (NUMBER OF GENES),1%,"1 (If the expression is greater than 1.3 compared to the control, a grade of 11s given)"
same,DHFR NUMBER OF GENES grade,1%,"0 (if this expression is lower, the grade is 0)"
same,EHF expression compared to control,1%,0.9
same,EHF grade (NUMBER OF GENES),1%,"0 (if this expression is lower, the grade is 0)"
same,FABP4 expression compared to control,1%,0.8
same,FABP4 grade (NUMBER OF GENES),1%,"0 (if this expression is lower, the grade is 0)"
same,HSP27 expression compared to control,1%,0.8
same,HSP27 grade (NUMBER OF GENES),1%,"0 (if this expression is lower, the grade is 0)"
same,HSP90 NUMBER OF GENES grade,1%,"0 (if this expression is lower, the grade is 0)"
same,IL18 NUMBER OF GENES grade,1%,"0 (if this expression is lower, the grade is 0)"
same,IVL expression compared to control,1%,1.7
same,IVL grade (NUMBER OF GENES),1%,"1 (If the expression is greater than 1.3 compared to the control, a grade of 11s given)"
same,KRT4 NUMBER OF GENES grade,1%,"0 (if this expression is lower, the grade is 0)"
same,MELANA NUMBER OF GENES grade,1%,"0 (if this expression is lower, the grade is 0)"
same,NGAL expression compared to control,1%,0.6
same,NGAL grade (NUMBER OF GENES),1%,"0 (if this expression is lower, the grade is 0)"
same,P13 expression compared to control,1%,1.4
same,P13 grade (NUMBER OF GENES),1%,"1 (If the expression is greater than 1.3 compared to the control, a grade of 11s given)"
same,PDZK1iP1 NUMBER OF GENES grade,1%,"0 (if this expression is lower, the grade is 0)"
same,SENS >1.3 (number of genes),1%,6
same,SERPINB3 NUMBER OF GENES grade,1%,"0 (if this expression is lower, the grade is 0)"
same,TOTAL SENS (number of genes),1%,6
same,BRAK expression,"1%, compared to the control",0.5
same,DHFR expression,"1%, compared to the control",0.9
same,HSP90 expression,"1%, compared to the control",1.1
same,IL18 expression,"1%, compared to the control",1.0
same,KRT4 expression,"1%, compared to the control",0.6
same,MELANA expression,"1%, compared to the control",1.1
same,PDZK1iP1 expression,"1%, compared to the control",1.0
same,SERPINB3 expression,"1%, compared to the control",1.1
same,BRAK NUMBER OF GENES grade,10%,"0 (if this expression is lower, the grade is 0)"
same,CTSS expression compared to control,10%,2.2
